Test results from ChEMBL document CHEMBL4196171, “Design of Gut-Restricted Thiazolidine Agonists of G Protein-Coupled Bile Acid Receptor 1 (GPBAR1, TGR5)” (J Med Chem, 2018).
Values after ≈ are worked out from the molar mass of the structure shown.

Key:
[1] = Plasma concentration in C57BL/6 mouse at 30 mg/kg, po measured after 8 hrs by HPLC and mass spectrometry; type: ADME, organism-based
[2] = Drug concentration in bile/gall bladder of C57BL/6 mouse at 30 mg/kg, po measured after 8 hrs by HPLC and mass spectrometry; type: ADME, organism-based; conditions: read-out: Drug uptake
[3] = Solubility in FeSSIF solution at 1 mg/ml at […] by HPLC with UV detector based assay; type: physicochemical
[4] = AUC in C57BL/6 mouse plasma at 10 mg/kg, po by HPLC and mass spectrometry; type: ADME, organism-based
[5] = Drug recovery in C57BL/6 mouse bile/gall bladder at 30 mg/kg, po by LC-MS/MS method; type: ADME, organism-based; conditions: read-out: Drug recovery
[6] = Cmax in C57BL/6 mouse plasma at 10 mg/kg, po by HPLC and mass spectrometry; type: ADME, organism-based; parameters: dose 10 mg/kg, route oral
[7] = Plasma concentration in C57BL/6 DIO mouse at 30 mg/kg, po measured after 4 to 16 hrs post dose by HPLC and mass spectrometry; type: ADME, organism-based; conditions: in vivo
[8] = Apparent permeability from basolateral to apical side in MDCK cells at 10 uM by HPLC-MS/MS method; type: ADME, cell-based, Canis lupus familiaris; conditions: dog
[9] = Plasma concentration in C57BL/6 DIO mouse at 100 mg/kg, po measured after 4 to 16 hrs post dose by HPLC and mass spectrometry; type: ADME, organism-based; conditions: in vivo
[10] = Drug recovery in C57BL/6 mouse feces at 10 mg/kg, po after 48 hrs by LC-MS/MS method; type: ADME, organism-based; conditions: faeces, read-out: Drug recovery
[11] = Apparent permeability from apical to basolateral side in MDCK cells at 10 uM by HPLC-MS/MS method; type: ADME, cell-based, Canis lupus familiaris; conditions: dog

Row | concentration at 8 h [1] [ng/mL] | concentration at 8 h [2] [nM] | SMILES | also measured
1 | 1.2 | 6000 | O=C(NCCCCCc1cc(Cl)c(CN2CSC[C@H]2C(=O)N2CCN(C3CC3)c3ccccc32)cc1Cl)NC(CO)(CO)CO | 
2 |  | 300 | O=C(NCCCN(CCCNC(=O)[C@H](O)[C@@H](O)[C@H](O)[C@H](O)CO)C(=O)NCCCCOc1cc(Cl)c(CN2CSC[C@H]2C(=O)N2CCN(C3CC3)c3ccccc32)cc1Cl)[C@H](O)[C@@H](O)[C@H](O)[C@H](O)CO | 
3 | 2.8 | 80 | O=C(NCCCCCc1cc(Cl)c(CN2CSC[C@H]2C(=O)N2CCN(C3CC3)c3ccccc32)cc1Cl)N1CCN(CP(=O)(O)O)CC1 | 
4 |  |  | O=C(c1cccnc1Oc1cc(Cl)ccc1Cl)N1CCN(C2CC2)c2ccccc21 | solubility [3]: < 50 µg/mL
5 | < 2 | 90 | O=C(NC[C@H](O)[C@@H](O)[C@H](O)[C@H](O)CO)c1ccc(COc2cc(Cl)c(CN3CSC[C@H]3C(=O)N3CCN(C4CC4)c4ccccc43)cc2Cl)cc1 | AUC [4]: < 5 ng·h/mL; dose excreted [5]: < 0.01%; Cmax [6]: 2 ng/mL; solubility [3]: 820 µg/mL (≈ 1080 µM); Drug uptake [7]: Not Active; Papp B→A at 10 µM [8]: 0.07 ×10⁻⁶ cm/s; Drug uptake [9]: Not Active; dose excreted at 48 h [10]: 83%; Papp A→B at 10 µM [11]: < 0.01 ×10⁻⁶ cm/s
6 |  | 4700 | O=C(O)CN(CCCCCc1cc(Cl)c(CN2CSC[C@H]2C(=O)N2CCN(C3CC3)c3ccccc32)cc1Cl)CC(=O)O | 
7 | 0.6 | 1700 | C[C@@H](NC(=O)[C@@H](C)NC(=O)[C@@H](C)NC(=O)CCCCc1cc(Cl)c(CN2CSC[C@H]2C(=O)N2CCN(C3CC3)c3ccccc32)cc1Cl)C(=O)O | 
8 | < 0.5 | 600 | O=C(O)CNC(=O)CNC(=O)CNC(=O)CCCCc1cc(Cl)c(CN2CSC[C@H]2C(=O)N2CCN(C3CC3)c3ccccc32)cc1Cl | 
9 |  |  | O=C([C@@H]1CCCN1Cc1cc(Cl)ccc1Cl)N1CCN(C2CC2)c2ccccc21 | solubility [3]: 360 µg/mL (≈ 836 µM)
10 | 3.6 | 1300 | CN(C[C@H](O)[C@@H](O)[C@H](O)[C@H](O)CO)C(=O)CCCCc1cc(Cl)c(CN2CSC[C@H]2C(=O)N2CCN(C3CC3)c3ccccc32)cc1Cl | 
11 |  | 3700 | O=C(O)CN(C[C@H](O)[C@@H](O)[C@H](O)[C@H](O)CO)C(=O)CCCCc1cc(Cl)c(CN2CSC[C@H]2C(=O)N2CCN(C3CC3)c3ccccc32)cc1Cl | 
12 | 2.3 | 1900 | CN(C[C@H](O)[C@@H](O)[C@H](O)[C@H](O)CO)C(=O)CC[C@H](NC(=O)CCCCc1cc(Cl)c(CN2CSC[C@H]2C(=O)N2CCN(C3CC3)c3ccccc32)cc1Cl)C(=O)O | 

Row | SMILES | concentration at 8 h [1] [ng/mL] | concentration at 8 h [2] [nM] | also measured
13 | O=C(NCCCCCc1cc(Cl)c(CN2CSC[C@H]2C(=O)N2CCN(C3CC3)c3ccccc32)cc1Cl)NCP(=O)(O)O | 24.8 | 3100 | 
14 | O=C(O)CNC(=O)[C@H](CSSC[C@H](NC(=O)CC[C@H](NC(=O)CCCCc1cc(Cl)c(CN2CSC[C@H]2C(=O)N2CCN(C3CC3)c3ccccc32)cc1Cl)C(=O)O)C(=O)NCC(=O)O)NC(=O)CC[C@H](NC(=O)CCCCc1cc(Cl)c(CN2CSC[C@H]2C(=O)N2CCN(C3CC3)c3ccccc32)cc1Cl)C(=O)O | < 10 | < 100 | 
15 | O=C(CCCCc1cc(Cl)c(CN2CSC[C@H]2C(=O)N2CCN(C3CC3)c3ccccc32)cc1Cl)N[C@@H](C(=O)O)[C@@H](O)[C@H](O)[C@H](O)CO | 28.1 | 3900 | 
